Reference: US6608082B1, “Treatment of erectile dysfunction using isoquinoline compound melanocortin receptor ligands” (Lion Bioscience AG, priority 1998, dated 2003)
Where two headings read alike, the source gives them in different places.

Target: T1, MCR-1 (Homo sapiens, UniProt Q01726)
T1 construct: expressed in transfected cells; host or cells: HEK 293
Test: Melanocortin receptor binding assay, competition with 125I-HP 467, HEK 293 cells expressing hMCR-1
Settings: for % Disp. MC-1 10 μM: displacement of 125I-HP 467 at 10 μM isoquinoline compound; for % Disp. of 125I-HP 467 (first of duplicate) / % Disp. of 125I-HP 467 (second of duplicate): 10 μM isoquinoline compound; for % Disp. of 125I-HP 467 (first of duplicate): HEK 293 cells expressing MCR-1, duplicate 1; for % Disp. of 125I-HP 467 (second of duplicate): HEK 293 cells expressing MCR-1, duplicate 2; for IC50: read-out: MC-1 IC50
Experimental: All cell culture media and reagents were obtained from GibcoBRL (Gaithersburg Md.), except for COSMIC CALF SERUM (HyClone; Logan Utah).
Cells were suspended in PBS, 10% COSMIC CALF SERUM and 1 mM CaCl2. Cell suspensions were prepared at a density of 2×10^4 cells/ml for HEK 293 cells expressing hMCR-3, hMCR-4 or hMCR-5, and 1×10^5 cells/ml for HEK 293 cells expressing hMCR-1. Suspensions were placed in a water bath and allowed to warm to 37° C. for 1 hr.
Binding assays were performed in a total volume of 250 μl for HEK 293 cells. […] To each tube was added 4×10^3 HEK 293 cells expressing hMCR-3, hMCR-4 or hMCR-5, or 2×10^4 cells expressing hMCR-1. Assays were incubated for 2.5 hr at 37° C.
GF/B filter plates were prepared by soaking for at least one hour in 5 mg/ml BSA and 10 mM CaCl2. Assays were filtered using a Brandel 96-well cell harvester (Brandel Inc.; Gaithersburg, Md.). The filters were washed four times with cold 50 mM Tris, pH 7.4, the filter plates were dehydrated for 2 hr and 35 μl of MICROSCINT was added to each well. Filter plates were counted using a Packard Topcount (Packard Instrument Co.) and data analyzed using GraphPad PRISM v2.0 (GraphPad Software Inc.; San Diego Calif.) and Microsoft EXCEL v5.0a (Microsoft Corp.; Redmond Wash.).
To assay isoquinoline compounds, binding assays were performed in duplicate in a 96 well format. […] A 0.2 ml aliquot of suspended cells was added to each well to give the cell numbers indicate above, and the cells were incubated at 37° C. for 2.5 hr. Cells were harvested on GF/B filter plates as described above and counted.

[1] = competition with 125I-HP 467, HEK 293 cells expressing MCR-1
[2] = inhibition of binding of 125I-HP 467, HEK 293 cells expressing MCR-1

T1 sequence (Q01726 whole entry): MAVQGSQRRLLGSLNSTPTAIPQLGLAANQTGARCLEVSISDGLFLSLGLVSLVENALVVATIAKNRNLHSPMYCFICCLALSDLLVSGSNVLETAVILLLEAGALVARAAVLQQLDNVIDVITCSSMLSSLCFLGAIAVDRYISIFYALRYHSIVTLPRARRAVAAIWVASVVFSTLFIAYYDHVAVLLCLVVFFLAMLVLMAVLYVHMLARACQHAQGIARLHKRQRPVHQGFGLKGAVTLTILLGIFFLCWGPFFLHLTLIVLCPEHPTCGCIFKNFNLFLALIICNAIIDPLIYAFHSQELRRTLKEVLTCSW

Structure (SMILES)	% Disp. MC-1 10 μM (first of duplicate) [%]	% Disp. MC-1 10 μM (second of duplicate) [%]	also measured
NCCN1Cc2ccccc2C(CNC2CCCCC2)C1c1ccccc1 (mixture of isomers) [TRG 2405-1]	85.3	24.1	
CNC(CN)CN1Cc2ccccc2C(CNC2CCCCC2)C1c1ccc2ccccc2n1 (mixture of isomers) [TRG 2405-112]	42.2	43.2	
CNC(CN)CN1Cc2ccccc2C(CNC2CCCCC2)C1c1cc(C(F)(F)F)cc(C(F)(F)F)c1 (mixture of isomers) [TRG 2405-118]	47.3	58.9	
CNC(CN)CN1Cc2ccccc2C(CNC2CCCCC2)C1c1cc(Cl)cc(Cl)c1 (mixture of isomers) [TRG 2405-120]	52.4	54.3	
CNC(CN)CN1Cc2ccccc2C(CNC2CCCCC2)C1c1ccc(OC)c(C)c1 (mixture of isomers) [TRG 2405-136]	49	51.8	
CNC(CN)CN1Cc2ccccc2C(CNC2CCCCC2)C1c1ccsc1 (mixture of isomers) [TRG 2405-143]	54.6	50.4	
CNC(CN)CN1Cc2ccccc2C(CNC2CCCCC2)C1c1ccc(Br)cc1 (mixture of isomers) [TRG 2405-152]	52.8	52.9	
CNC(CN)CN1Cc2ccccc2C(CNC2CCCCC2)C1c1ccc([N+](=O)[O-])c(O)c1 (mixture of isomers) [TRG 2405-160]	26.1	41.7	
CNC(CN)CN1Cc2ccccc2C(CNC2CCCCC2)C1c1ccc([N+](=O)[O-])cc1 (mixture of isomers) [TRG 2405-161]	58.4	59.1	
CNC(CN)CCCCN1Cc2ccccc2C(CNC2CCCCC2)C1c1ccccc1O (mixture of isomers) [TRG 2405-182]			% Disp. of 125I-HP 467 (first of duplicate): 37.5%; % Disp. of 125I-HP 467 (second of duplicate): 44.4%
CNC(CN)CCCCN1Cc2ccccc2C(CNC2CCCCC2)C1c1ccc2c(c1)OCCO2 (mixture of isomers) [TRG 2405-183]			% Disp. of 125I-HP 467 (first of duplicate): 58.9%; % Disp. of 125I-HP 467 (second of duplicate): 64.1%
CNC(CN)CCCCN1Cc2ccccc2C(CNC2CCCCC2)C1c1cc(Cl)cc(Cl)c1Cl (mixture of isomers) [TRG 2405-187]			% Disp. of 125I-HP 467 (first of duplicate): 64.6%; % Disp. of 125I-HP 467 (second of duplicate): 59.3%
CNC(CN)CCCCN1Cc2ccccc2C(CNC2CCCCC2)C1c1ccc(F)c(F)c1 (mixture of isomers) [TRG 2405-207]			% Disp. of 125I-HP 467 (first of duplicate): 65%; % Disp. of 125I-HP 467 (second of duplicate): 65.5%
CNC(CN)CCCCN1Cc2ccccc2C(CNC2CCCCC2)C1c1cccc(Oc2ccc(Cl)c(Cl)c2)c1 (mixture of isomers) [TRG 2405-213]			% Disp. of 125I-HP 467 (first of duplicate): 80%; % Disp. of 125I-HP 467 (second of duplicate): 78.1%
CNC(CN)CCCCN1Cc2ccccc2C(CNC2CCCCC2)C1c1ccc(OC)c(C)c1 (mixture of isomers) [TRG 2405-226]			% Disp. of 125I-HP 467 (first of duplicate): 79.1%; % Disp. of 125I-HP 467 (second of duplicate): 77.7%
CNC(CN)CCCCN1Cc2ccccc2C(CNC2CCCCC2)C1c1ccsc1 (mixture of isomers) [TRG 2405-233]			% Disp. of 125I-HP 467 (first of duplicate): 53.6%; % Disp. of 125I-HP 467 (second of duplicate): 42.8%
CNC(CN)CCCCN1Cc2ccccc2C(CNC2CCCCC2)C1c1ccc(OC)c2ccccc12 (mixture of isomers) [TRG 2405-248]			% Disp. of 125I-HP 467 (first of duplicate): 56.5%; % Disp. of 125I-HP 467 (second of duplicate): 67.9%
CNC(CN)CCCCN1Cc2ccccc2C(CNC2CCCCC2)C1c1ccc([N+](=O)[O-])c(O)c1 (mixture of isomers) [TRG 2405-250]			% Disp. of 125I-HP 467 (first of duplicate): 34.7%; % Disp. of 125I-HP 467 (second of duplicate): 50.5%
CNC(CN)CCCCN1Cc2ccccc2C(CNC2CCCCC2)C1c1ccc[nH]1 (mixture of isomers) [TRG 2405-265]			% Disp. of 125I-HP 467 (first of duplicate): 60.5%; % Disp. of 125I-HP 467 (second of duplicate): 54.1%
CNC(CN)CCCCN1Cc2ccccc2C(CNC2CCCCC2)C1c1ccc(S(C)(=O)=O)cc1 (mixture of isomers) [TRG 2405-267]			% Disp. of 125I-HP 467 (first of duplicate): 21.5%; % Disp. of 125I-HP 467 (second of duplicate): 8.4%
CNC(C)CNC(CN)CCCCN1Cc2ccccc2C(CNC2CCCCC2)C1c1ccc(-c2ccccc2)cc1 (mixture of isomers) [TRG 2411-15]			IC50 [1]: 730 nM
NCC(CCCCN1Cc2ccccc2C(CN)C1c1ccc(-c2ccccc2)cc1)NCc1ccccc1 (mixture of isomers) [TRG 2411-35]			IC50 [1]: 510 nM
CCCCNc1ccc(C2C(CNCCc3ccccc3)c3ccccc3CN2CCCCC(CN)NCCc2ccc(OC)cc2)cc1 (mixture of isomers) [TRG 2411-79]			IC50 [1]: 370 nM
CCCCNc1ccc(C2C(CN)c3ccccc3CN2CCCCC(CN)NCc2ccc(Cl)cc2)cc1 (mixture of isomers) [TRG 2411-108]			IC50 [1]: 160 nM

Structure (SMILES)	% Disp. MC-1 10 μM (first of duplicate) [%]	% Disp. MC-1 10 μM (second of duplicate) [%]	also measured
NCC(N)CCCN1Cc2ccccc2C(CN)C1c1ccc(-c2ccccc2)cc1 (mixture of isomers) [TRG 2411-136]			IC50 [1]: 1730 nM
CNC(C)CNC(CN)CCCN1Cc2ccccc2C(CN)C1c1ccc(-c2ccccc2)cc1 (mixture of isomers) [TRG 2411-142]			IC50 [1]: 1280 nM
CCNc1ccc(C2C(CN)c3ccccc3CN2CCCC(N)CN)cc1 (mixture of isomers) [TRG 2411-174]			IC50 [2]: 480 nM
CCNc1ccc(C2C(CN)c3ccccc3CN2CCCC(CN)NCC)cc1 (mixture of isomers) [TRG 2411-176]			IC50 [2]: 220 nM
CCNc1ccc(C2C(CN)c3ccccc3CN2CCCC(CN)NCCc2ccc3ccccc3c2)cc1 (mixture of isomers) [TRG 2411-185]			IC50 [2]: 100 nM
CNC(CN)CCCCN1Cc2ccccc2C(CNCCc2ccccc2)C1c1ccc([N+](=O)[O-])cc1 (mixture of isomers) [TRG 2413-5]			IC50 [2]: 4880 nM
NCCN1Cc2ccccc2C(CNC2CCCCC2)C1c1ccccc1O (centres unmarked) [TRG 2405-2]	42.9	40.8	
NCCN1Cc2ccccc2C(CNC2CCCCC2)C1c1ccc2c(c1)OCCO2 (centres unmarked) [TRG 2405-3]	46.8	44.2	
NCCN1Cc2ccccc2C(CNC2CCCCC2)C1c1cccc2ccccc12 (centres unmarked) [TRG 2405-5]	53.6	53.6	
NCCN1Cc2ccccc2C(CNC2CCCCC2)C1c1ccc(F)c(F)c1F (centres unmarked) [TRG 2405-6]	45.7	50	
NCCN1Cc2ccccc2C(CNC2CCCCC2)C1c1cc(Cl)cc(Cl)c1Cl (centres unmarked) [TRG 2405-7]	50.3	54.8	
NCCN1Cc2ccccc2C(CNC2CCCCC2)C1c1cccc2c1OCO2 (centres unmarked) [TRG 2405-8]	0	26.1	
NCCN1Cc2ccccc2C(CNC2CCCCC2)C1c1cccc(F)c1F (centres unmarked) [TRG 2405-9]	36.4	33.4	
NCCN1Cc2ccccc2C(CNC2CCCCC2)C1c1ccc(Cl)cc1Cl (centres unmarked) [TRG 2405-10]	56.9	53	
NCCN1Cc2ccccc2C(CNC2CCCCC2)C1c1c(F)cccc1F (centres unmarked) [TRG 2405-11]	45.1	27	
NCCN1Cc2ccccc2C(CNC2CCCCC2)C1c1ccccc1Br (centres unmarked) [TRG 2405-12]	38.7	41.8	
NCCN1Cc2ccccc2C(CNC2CCCCC2)C1c1c(F)cccc1Cl (centres unmarked) [TRG 2405-14]	34.2	29.6	
NCCN1Cc2ccccc2C(CNC2CCCCC2)C1c1ccccc1CN (centres unmarked) [TRG 2405-15]	23.5	52.5	
NCCN1Cc2ccccc2C(CNC2CCCCC2)C1c1ccccc1F (centres unmarked) [TRG 2405-16]	26.8	40.3	
NCCN1Cc2ccccc2C(CNC2CCCCC2)C1c1ccco1 (centres unmarked) [TRG 2405-17]	36	32.8	
NCCN1Cc2ccccc2C(CNC2CCCCC2)C1c1ncc[nH]1 (centres unmarked) [TRG 2405-18]	35.9	34.7	
COc1ccccc1C1C(CNC2CCCCC2)c2ccccc2CN1CCN (centres unmarked) [TRG 2405-19]	42.2	36.2	
NCCN1Cc2ccccc2C(CNC2CCCCC2)C1c1ccc2ccccc2c1 (centres unmarked) [TRG 2405-20]	59.8	53.6	
NCCN1Cc2ccccc2C(CNC2CCCCC2)C1c1ccccn1 (centres unmarked) [TRG 2405-21]	47.7	42.5	
